Assay results reported in paper PMC7284918, “In-Depth Characterization of EpiIntestinal Microtissue as a Model for Intestinal Drug Absorption and Metabolism in Human” (Pharmaceutics, 2020).
Like-named read-outs stand apart in the source and are kept apart here.

How the values were obtained:
UGT [1] = experiment: DME activity in Caco-2: UGT; assay type: in vitro ADME, human; settings: UGT/7-OH-Coumarin, metabolite 7-OH-Coumarin-Glucuronid
SULT [2] = experiment: DME activity in Caco-2: SULT; assay type: in vitro ADME, human; settings: SULT/7-OH-Coumarin, metabolite 7-OH-Coumarin-Sulfat
UGT [3] = experiment: DME activity in EpiIntestinal microtissues: UGT; assay type: in vitro ADME, human; settings: UGT/7-OH-Coumarin, metabolite 7-OH-Coumarin-Glucuronid
SULT [4] = experiment: DME activity in EpiIntestinal microtissues: SULT; assay type: in vitro ADME, human; settings: SULT/7-OH-Coumarin, metabolite 7-OH-Coumarin-Sulfat
CYP2D6 [5] = target: T1, CYP2D6 (Homo sapiens, UniProt P10635); experiment: DME activity in Caco-2: CYP2D6; assay type: in vitro ADME; settings: CYP2D6/Dextromethorphan, metabolite Dextrorphan
T1 construct: endogenous in cells; host or cells: Caco-2 cells in 96-well Transwell inserts

CYP2D6 [6] = target: T1, CYP2D6; experiment: DME activity in EpiIntestinal microtissues: CYP2D6; assay type: in vitro ADME; settings: CYP2D6/Dextromethorphan, metabolite Dextrorphan
[7] = system: EpiIntestinal microtissues; experiment: Metabolite identification in EpiIntestinal microtissues; assay type: in vitro ADME, human; settings: 10 µM, peak areas at end of incubation
Protocol: (§1) Raloxifene or ezetimibe (10 µM) in culture media was added to the apical compartment of EpiIntestinal microtissues or incubated with cryopreserved human intestinal mucosa (HIM). […] Analysis was performed on a LC-MS system containing a Vanquish UPLC (ThermoFisher Scientific, San Jose, CA, USA) coupled to an Orbitrap FusionTribrid high resolution mass spectrometer (ThermoFisher Scientific). Structure elucidation was based on exact mass measurements in combination with the interpretation of fragment spectra.

[8] = system: human intestinal mucosa (HIM); experiment: Metabolite identification in cryopreserved human intestinal mucosa (HIM); assay type: in vitro ADME; settings: 10 µM, peak areas at end of incubation
Protocol: as §1

CYP1A2 [9] = target: T2, CYP1A2 (Homo sapiens, UniProt P05177)
T2 sequence (P05177 1-516): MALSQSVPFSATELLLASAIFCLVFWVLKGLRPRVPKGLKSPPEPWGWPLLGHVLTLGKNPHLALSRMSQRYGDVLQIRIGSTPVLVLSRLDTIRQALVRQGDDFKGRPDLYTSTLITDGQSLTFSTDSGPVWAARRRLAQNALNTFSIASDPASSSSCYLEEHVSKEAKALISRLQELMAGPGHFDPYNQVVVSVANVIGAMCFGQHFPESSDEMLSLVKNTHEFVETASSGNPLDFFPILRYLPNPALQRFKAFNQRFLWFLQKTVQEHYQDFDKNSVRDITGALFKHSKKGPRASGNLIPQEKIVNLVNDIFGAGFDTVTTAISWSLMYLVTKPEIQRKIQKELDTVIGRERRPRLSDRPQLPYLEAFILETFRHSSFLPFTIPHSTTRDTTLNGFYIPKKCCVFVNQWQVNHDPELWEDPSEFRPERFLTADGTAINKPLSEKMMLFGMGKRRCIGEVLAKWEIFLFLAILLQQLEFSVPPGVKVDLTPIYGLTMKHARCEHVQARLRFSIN
Protocol: (§2) For measurements of DME activities in EpiIntestinal microtissues and Caco-2 cells, both were cultured in 96-well Transwell inserts. Drugs (Table 1) were dissolved in the respective solvent at 200x concentration and diluted in a pre-warmed transport buffer. Diluted substrate solution was applied to the apical (100 µL) and basal (250 µL) compartment of the Transwell and incubated at 37 °C and 5% CO2 and 60 rpm continuous shaking. DME activities were determined by monitoring metabolite formation in basal compartment over time (0, 0.5, 1, 2, 3 and 4 h) with LC-MS/MS. […] Chromatographic separation of samples was performed on YMC Triart C18 (1.9 µm, 30 × 2 mm; YMC Europe, Dinslaken, Germany) LC analytical column. Quantification of all metabolites listed in Table 1 was achieved by the use of calibration curves for the individual metabolites with appropriate concentration ranges.
A total of 10 µL of the incubation sample were diluted with 90 µL of water containing 10–20% ACN or methanol, 0.1% formic acid and the respective internal standard. To analyze the intracellular metabolite concentration, cells on Transwell inserts were washed twice with ice-cold PBS and stored at −80 °C for 20 min. Afterwards, 150 µL 50% ACN diluted with transport buffer was added to the cells and incubated at room temperature for 30 min. Cell lysate was transferred to a fresh 96-well plate and centrifuged at 4 °C, 4000 rpm for 10 min. Subsequently, 10 µL of the supernatant were diluted with 90 µl water containing 10–20% ACN or methanol, 0.1% formic acid and the respective internal standard. A total of 2 µL sample was injected into the LC-MS/MS system operated with an electrospray ionization source.

CYP1A2 [10] = target: T2, CYP1A2; remark: listed apart in the source
Protocol: as §2
A total of 10 µL of the incubation sample were diluted with 90 µL of water containing 10–20% ACN or methanol, 0.1% formic acid and the respective internal standard. To analyze the intracellular metabolite concentration, cells on Transwell inserts were washed twice with ice-cold PBS and stored at −80 °C for 20 min. Afterwards, 150 µL 50% ACN diluted with transport buffer was added to the cells and incubated at room temperature for 30 min. […]

[11] = Bidirectional permeability assay in Caco-2; assay type: in vitro ADME, human; settings: human, no inhibitor, mean of duplicates
BCRP = experiment: Bidirectional permeability assay in Caco-2; assay type: in vitro ADME, human; settings: human, pH 7.4, with Ko-143 (3 µM), with BCRP inhibitor Ko-143 (3 µM)
Caco-2 cells = experiment: Bidirectional permeability assay in Caco-2; assay type: in vitro ADME, human; settings: with P-gp inhibitor Zosuqidar (5 µM)
P-gp = experiment: Bidirectional permeability assay in Caco-2; assay type: in vitro ADME, human; settings: human, pH 7.4, with Zosuqidar (5 µM), with P-gp inhibitor Zosuqidar (5 µM)
[12] = system: EpiIntestinal microtissues; experiment: Bidirectional permeability assay in EpiIntestinal microtissues; assay type: in vitro ADME, human
Protocol: Caco-2 cells were obtained from Leibniz Institute DSMZ-German Collection of Microorganisms and Cell Cultures (Braunschweig, Germany) and cultured in DMEM containing 10% FCS, 1% NEAA, 2 mM Glutamin, 100 U/mL Penicillin and 100 µg/mL Streptomycin. […] EpiIntestinal microtissues were obtained from MatTek (Bratislav, Slovakia) and cultured according to the manufacturer’s instruction (24-well format for bidirectional permeability assays and GI firstpass availability assays and 96-well format for screening of DME activities).
Bidirectional permeability assays were performed as described previously. […] In indicated experiments, inhibitors were added to both compartments. Cells were incubated with the compounds for up to 2 h. Samples from the opposite compartment were taken at different timepoints. […] Prior to bioanalysis samples were spiked with internal standard solution and diluted with acetonitrile (ACN) for protein precipitation. Measurement was operated in multiple reaction monitoring (MRM) mode. Quantification was performed using external calibration. Apparent permeability coefficients in the apical to basal direction (Papp,AB) and in the basal to apical direction (Papp,BA) and efflux were calculated as follows Papp,AB=QAB/(C0×s×t) Papp,BA=QBA/(C0×s×t) Efflux=Papp,BA/Papp,AB where Q is the amount of compound recovered in the receiver compartment after the incubation time t, C0 the initial compound concentration given to the donor compartment, and s the surface area of the Transwell inserts. Efflux ratio is calculated as the quotient of Papp,BA to Papp,AB. […] In addition, Transepithelial electrical resistance (TEER) values are measured for each plate before the permeability assay and total recovery in donor and receiver compartments was determined for each compound. All these parameters (efflux of apafant, Papp values of the low permeable compound, TEER values, and total recovery) are used to ensure the quality of the assays.

[13] = Intestinal first-pass availability in EpiIntestinal microtissues; assay type: in vitro ADME, human; settings: human, EpiIntestinal microtissues, 10 µM apical, GI firstpass availability, read-out: Recovery in Basal Comp. @ 24h (%)
Protocol: Compounds were diluted in culture media to a final concentration of 10 µM and added to the apical (donor) compartment (total volume: 100 µL for EpiIntestinal and 200 µL for Caco-2). After the incubation at 37 °C for 2, 4, 6, and 24 h, samples (50 µL) were taken from the basal (receiver) compartment (total volume: 5000 µL for EpiIntestinal and 800 µL for Caco-2). After the last timepoint, samples from the donor compartments and the cell lysates were also collected. Compound concentrations in the samples were determined by HPLC-MS/MS (Section 2.3).
GI first-pass availability of the tested compounds was expressed as fraction (%) of the total amount of a compound added to the donor compartment recovered in the receiver compartment.

in vitro = settings: human, blood
Text: Blood CLb can be converted from plasma clearance CLp with the blood-to-plasma ratio RB: CLb=CLp/RB

[14] = human, clinical; cited from earlier work
CES1 and CES2 [15] = experiment: CES-mediated metabolism of dabigatran etexilate in human hepatocytes (huHEP); assay type: in vitro ADME; settings: human hepatocytes in suspension; 2 µM
Protocol: (§3) CES-mediated metabolism of dabigatran etexilate was measured in cryopreserved human hepatocytes (BioIVT, West Sussex, UK) and cryopreserved human intestinal mucosa (in vitro ADMET laboratories, Columbia, MD, USA) in suspension and in Caco-2 cells and EpiIntestinal microtissues grown on Transwell inserts. Dabigatran etexilate was diluted in culture media for the respective cells or tissues. The final concentrations of dabigatran etexilate were selected in an earlier experiment to ensure reasonable turnover of the compound within the incubation time: 2 µM for hepatocytes and intestinal mucosa, 10 µM for Caco-2 and EpiIntestinal microtissues. In the experiments with Transwell inserts, dabigatran etexilate was given to the apical compartments, metabolites were measured in the basal (receiver) compartments. Concentrations of the metabolites were determined by HPLC-MS/MS (Section 2.3).

CES1 and CES2 [16] = experiment: CES-mediated metabolism of dabigatran etexilate in human intestinal mucosa (HIM); assay type: in vitro ADME; settings: human intestinal mucosa in suspension; 2 µM
Protocol: as §3

CES1 and CES2 [17] = experiment: CES-mediated metabolism of dabigatran etexilate in Caco-2 cells; assay type: in vitro ADME, human; settings: Caco-2 on Transwell; 10 µM apical; basal compartment
Protocol: as §3

CES1 and CES2 [18] = experiment: CES-mediated metabolism of dabigatran etexilate in EpiIntestinal microtissues; assay type: in vitro ADME, human; settings: EpiIntestinal on Transwell; 10 µM apical; basal compartment
Protocol: as §3

[19] = with BCRP inhibitor Ko-143 (3 µM)
[20] = with P-gp inhibitor Zosuqidar (5 µM)

T1 sequence (P10635 whole entry): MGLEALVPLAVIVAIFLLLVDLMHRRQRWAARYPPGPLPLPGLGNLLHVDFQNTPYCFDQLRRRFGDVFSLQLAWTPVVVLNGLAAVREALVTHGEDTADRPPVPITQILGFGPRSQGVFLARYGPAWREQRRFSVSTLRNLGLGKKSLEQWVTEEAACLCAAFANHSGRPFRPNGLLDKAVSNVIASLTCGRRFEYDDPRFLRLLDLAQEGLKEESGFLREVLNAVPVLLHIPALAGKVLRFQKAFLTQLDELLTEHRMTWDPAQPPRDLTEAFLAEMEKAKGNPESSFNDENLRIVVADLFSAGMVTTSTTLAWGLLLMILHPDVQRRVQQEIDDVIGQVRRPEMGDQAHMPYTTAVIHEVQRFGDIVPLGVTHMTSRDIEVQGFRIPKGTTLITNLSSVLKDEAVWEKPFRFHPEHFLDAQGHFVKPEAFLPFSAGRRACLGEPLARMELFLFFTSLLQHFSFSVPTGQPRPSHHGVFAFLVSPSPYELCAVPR

## O=c1ccc2ccc(O)cc2o1 [7-OH-Coumarin]
UGT [1]
  Intracellular Metabolite (% of Total): 5.5 % of Total
SULT [2]
  Intracellular Metabolite (% of Total): BLQ
UGT [3]
  Intracellular Metabolite (% of Total): 10.0 % of Total
SULT [4]
  Intracellular Metabolite (% of Total): 3.4 % of Total

## COc1ccc2c(c1)[C@]13CCCC[C@@H]1[C@H](C2)N(C)CC3 [Dextromethorphan]
CYP2D6 [5]
  Intracellular Metabolite (% of Total): BLQ
CYP2D6 [6]
  Intracellular Metabolite (% of Total): BLQ

## O=C1[C@H](CC[C@H](O)c2ccc(F)cc2)[C@@H](c2ccc(O)cc2)N1c1ccc(F)cc1 [Ezetimibe]
[7]
  Parent (% of parent drug at T0): 8.4 % of parent drug at T0
[8]
  Parent (% of parent drug at T0): 40.3 % of parent drug at T0

## CCOc1ccc(NC(C)=O)cc1 [Phenacetin]
CYP1A2 [9]
  Intracellular Metabolite (% of Total): BLQ
CYP1A2 [9]; human
  Enzyme Activities Mean/SD: 123.1/4.8 pmol/h/cm^2
CYP1A2 [10]
  Intracellular Metabolite (% of Total): BLQ
CYP1A2 [10]; human
  Enzyme Activities Mean/SD: 17.4/3.0 pmol/h/cm^2

## O=C(c1ccc(OCCN2CCCCC2)cc1)c1c(-c2ccc(O)cc2)sc2cc(O)ccc12 [Raloxifene]
[7]
  Parent (% of parent drug at T0): 2.4 % of parent drug at T0
[8]
  Parent (% of parent drug at T0): 33.2 % of parent drug at T0

## CC(C)c1nc(N(C)S(C)(=O)=O)nc(-c2ccc(F)cc2)c1/C=C/[C@@H](O)C[C@@H](O)CC(=O)O [Rosuvastatin]
[11]; pH 7.4, 10 µM
  Papp A→B at 10 µM: 0.3 ×10⁻⁶ cm/s
[11]; pH 7.4, Papp,BA/Papp,AB
  efflux ratio at 10 µM: 21
BCRP
  efflux ratio at 10 µM: 5.5
Caco-2 cells
  PappAB: 0.3 10^−6 cm/s
P-gp
  efflux ratio at 10 µM: 19
[12]; Papp,BA/Papp,AB, no inhibitor, mean of triplicates
  Efflux: 100.0
[12]; [19]
  Efflux: 3.1
  PappAB: 2.6 10^−6 cm/s
[12]; [20]
  Efflux: 25
  PappAB: 0.9 10^−6 cm/s
[13]
  recovery at 24 h, 10 µM: 30%
In vitro
  blood plasma ratio: 0.75
[14]
  F (total oral availability): 0.2 [8]
  fe (fraction of renal excretion): 0.3 [23]

## CCCCCCOC(=O)NC(=N)c1ccc(NCc2nc3cc(C(=O)N(CCC(=O)OCC)c4ccccn4)ccc3n2C)cc1 [dabigatran etexilate]
CES1 and CES2 [15]
  Main metabolite of dabigatran etexilate: BIBR 1087
CES1 and CES2 [16]
  Main metabolite of dabigatran etexilate: BIBR 951
CES1 and CES2 [17]
  Main metabolite of dabigatran etexilate: BIBR 1087
CES1 and CES2 [18]
  Main metabolite of dabigatran etexilate: BIBR 953
